Data taken from ChEMBL document CHEMBL3044763, “Inhibitory Activities of Rhodanine Derivatives on Plant Growth” (Biosci Biotechnol Biochem, 1996).

Columns and labels:
[1] = Toxicity in Mus musculus ddY (mouse) assessed as mortality at 375 mg/kg, ip after 6 days; assay type: organism-based; parameters: dose 375 mg/kg, route intraperitoneal; details: in vivo
[2] = system: Brassica rapa subsp. oleifera; assay: Growth inhibition of Brassica rapa subsp. oleifera assessed as chlorophyll b level at 1 x 10^-4 M after 7 days; assay type: functional; parameters: scale not given: the % may be the effect or the level left
[3] = Toxicity in Mus musculus ddY (mouse) assessed as mortality at 325 mg/kg, ip after 5 days; assay type: organism-based; parameters: dose 325 mg/kg, route intraperitoneal; details: in vivo
[4] = Toxicity in Mus musculus ddY (mouse) assessed as mortality at 400 mg/kg, ip after 4 days; assay type: organism-based; parameters: dose 400 mg/kg, route intraperitoneal; details: in vivo
[5] = Toxicity in Mus musculus ddY (mouse) assessed as mortality at 325 mg/kg, ip after 3 days; assay type: organism-based; parameters: dose 325 mg/kg, route intraperitoneal; details: in vivo
[6] = system: Brassica rapa subsp. oleifera; assay: Growth inhibition of Brassica rapa subsp. oleifera assessed as chlorophyll b level at 5 x 10^-5 M after 7 days; assay type: functional; parameters: scale not given: the % may be the effect or the level left
[7] = Toxicity in Mus musculus ddY (mouse) assessed as mortality at 275 mg/kg, ip after 3 days; assay type: organism-based; parameters: dose 275 mg/kg, route intraperitoneal; details: in vivo
[8] = system: Brassica rapa subsp. oleifera; assay: Growth inhibition of Brassica rapa subsp. oleifera assessed as chlorophyll b level at 3 x 10^-4 M after 7 days; assay type: functional; parameters: scale not given: the % may be the effect or the level left
[9] = system: Brassica rapa subsp. oleifera; assay: Growth inhibition of Brassica rapa subsp. oleifera assessed as root growth at 3 x 10^-5 M after 7 days; assay type: functional
[10] = system: Brassica rapa subsp. oleifera; assay: Growth inhibition of Brassica rapa subsp. oleifera assessed as total chlorophyll level at 5 x 10^-5 M after 7 days; assay type: functional; parameters: scale not given: the % may be the effect or the level left
[11] = Toxicity in Mus musculus ddY (mouse) assessed as mortality at 275 mg/kg, ip after 5 days; assay type: organism-based; parameters: dose 275 mg/kg, route intraperitoneal; details: in vivo
[12] = system: Brassica rapa subsp. oleifera; assay: Growth inhibition of Brassica rapa subsp. oleifera assessed as root growth at 3 x 10^-4 M after 7 days; assay type: functional
[13] = Toxicity in Mus musculus ddY (mouse) assessed as mortality at 325 mg/kg, ip after 1 day; assay type: organism-based; parameters: dose 325 mg/kg, route intraperitoneal; details: in vivo
[14] = Toxicity in Mus musculus ddY (mouse) assessed as mortality at 375 mg/kg, ip after 5 days; assay type: organism-based; parameters: dose 375 mg/kg, route intraperitoneal; details: in vivo
[15] = Toxicity in Mus musculus ddY (mouse) assessed as mortality at 400 mg/kg, ip after 1 day; assay type: organism-based; parameters: dose 400 mg/kg, route intraperitoneal; details: in vivo
[16] = system: Brassica rapa subsp. oleifera; assay: Growth inhibition of Brassica rapa subsp. oleifera assessed as total chlorophyll level at 1 x 10^-4 M after 7 days; assay type: functional; parameters: scale not given: the % may be the effect or the level left
[17] = Toxicity in Mus musculus ddY (mouse) assessed as mortality at 275 mg/kg, ip after 4 days; assay type: organism-based; parameters: dose 275 mg/kg, route intraperitoneal; details: in vivo
[18] = Toxicity in Mus musculus ddY (mouse) assessed as mortality at 325 mg/kg, ip after 6 days; assay type: organism-based; parameters: dose 325 mg/kg, route intraperitoneal; details: in vivo
[19] = system: Brassica rapa subsp. oleifera; assay: Growth inhibition of Brassica rapa subsp. oleifera assessed as chlorophyll a level at 3 x 10^-4 M after 7 days; assay type: functional; parameters: scale not given: the % may be the effect or the level left
[20] = Toxicity in Mus musculus ddY (mouse) assessed as mortality at 325 mg/kg, ip after 7 days; assay type: organism-based; parameters: dose 325 mg/kg, route intraperitoneal; details: in vivo
[21] = Toxicity in Mus musculus ddY (mouse) assessed as mortality at 275 mg/kg, ip after 7 days; assay type: organism-based; parameters: dose 275 mg/kg, route intraperitoneal; details: in vivo
[22] = Toxicity in Mus musculus ddY (mouse) assessed as mortality at 400 mg/kg, ip after 6 days; assay type: organism-based; parameters: dose 400 mg/kg, route intraperitoneal; details: in vivo
[23] = Toxicity in Mus musculus ddY (mouse) assessed as mortality at 400 mg/kg, ip after 7 days; assay type: organism-based; parameters: dose 400 mg/kg, route intraperitoneal; details: in vivo
[24] = Toxicity in Mus musculus ddY (mouse) assessed as mortality at 300 mg/kg, ip after 4 days; assay type: organism-based; parameters: dose 300 mg/kg, route intraperitoneal; details: in vivo
[25] = Toxicity in Mus musculus ddY (mouse) assessed as mortality at 350 mg/kg, ip after 2 days; assay type: organism-based; parameters: dose 350 mg/kg, route intraperitoneal; details: in vivo
[26] = system: Brassica rapa subsp. oleifera; assay: Growth inhibition of Brassica rapa subsp. oleifera assessed as chlorophyll b level at 3 x 10^-5 M after 7 days; assay type: functional; parameters: scale not given: the % may be the effect or the level left
[27] = Toxicity in Mus musculus ddY (mouse) assessed as mortality at 375 mg/kg, ip after 1 day; assay type: organism-based; parameters: dose 375 mg/kg, route intraperitoneal; details: in vivo
[28] = Toxicity in Mus musculus ddY (mouse) assessed as mortality at 350 mg/kg, ip after 5 days; assay type: organism-based; parameters: dose 350 mg/kg, route intraperitoneal; details: in vivo
[29] = Toxicity in Mus musculus ddY (mouse) assessed as mortality at 275 mg/kg, ip after 1 day; assay type: organism-based; parameters: dose 275 mg/kg, route intraperitoneal; details: in vivo

## O=C1CSC(=S)N1 [RHODANINE]
[1]
  mortality at 144 h: 100%
[2]
  Activity: 2.41%
[3]
  mortality at 120 h: 80%
[4]
  mortality at 96 h: 100%
[5]
  mortality at 72 h: 80%
[6]
  Activity: 5.08%
[7]
  mortality at 72 h: 0%
[8]
  Activity: 1.44%
[9]
  Root length: 46 mm
[10]
  Activity: 19.17%
[11]
  mortality at 120 h: 0%
[12]
  Activity: 11.3 mm
[13]
  mortality at 24 h: 40%
[14]
  mortality at 120 h: 100%
[15]
  mortality at 24 h: 80%
[16]
  Activity: 9.16%
[17]
  mortality at 96 h: 0%
[18]
  mortality at 144 h: 80%
[19]
  Activity: 2.09%
[20]
  mortality at 168 h: 80%
[21]
  mortality at 168 h: 0%
[22]
  mortality at 144 h: 100%
[23]
  mortality at 168 h: 100%
[24]
  mortality at 96 h: 40%
[25]
  mortality at 48 h: 80%
[26]
  Activity: 4.8%
[27]
  mortality at 24 h: 80%
[28]
  mortality at 120 h: 80%
[29]
  mortality at 24 h: 0%
